From patent US12350247B2, “Use of APE1/Ref-1 inhibitors for treatment of retinal diseases” (Indiana University Research and Technology Corporation, priority 2017, dated 2025)
Like-named read-outs stand apart in the source and are kept apart here.

Assays:
[1] = test system: PDAC cells and CAFs; assay: 3D co-culture cytotoxicity, Ref-1 inhibition with docetaxel or trametinib; type: cell-based
Excerpt: Standard 3D co-culture assays as prepared in Arpin, C. et al., Mol Cancer Ther 15, 794-805 (2016); Logsdon, P. et al., Mol Cancer Ther 15, 2722-2732 (2016); Cardoso, A. et al., PloS one 7, e4742 (2012); and Kelley, M. et al., The Journal of pharmacology and experimental therapeutics 359, 300-309 (2016) were used to evaluate the cytotoxicity of the combinations on tumor cells as well as cancer-associated fibroblasts.

[2] = test system: Pa03C; assay: Monolayer cytotoxicity under hypoxia (alamarBlue); type: cell-based; details: N = 3, read-out: LC50 (the source's name)
Excerpt: (§1) To determine target selectivity, analogs of APX3330, APX2009 and APX2014, and an analog of SLC-0111, FC12-531A, were used.

[3] = test system: Panc10.05; assay: Monolayer cytotoxicity under hypoxia (alamarBlue); type: cell-based
Excerpt: as §1

[4] = test system: patient-derived PDAC cell lines (10.05, Pa02C, Pa03C); assay: SLC-0111 efficacy in PDAC cell lines under hypoxic conditions; type: cell-based; details: Homo sapiens, all three patient-derived PDAC cell lines, 0.2% O2, read-out: LC50 during hypoxia exposure
Experimental: The efficacy of SLC-0111, a CA9 inhibitor that has recently completed a Phase I clinical trial, was evaluated in different PDAC cell lines under hypoxic conditions for comparison.

[5] = test system: 10.05 cells; assay: Intracellular pH assay (pHrodo Red AM) in hypoxic 10.05 cells; type: cell-based, human; details: 0.2% O2 48 hrs; up to 50 μM APX3330, 100 μM SLC-0111; 8 APX2009, 5 μM APX2014
Excerpt: Therefore, the APX3330 analogs, APX2009 and APX2014, were used to determine whether APE1/Ref-1 redox inhibition alone can shift intracellular pH in hypoxic PDAC cells given a sufficiently potent inhibitor.

[6] = test system: CAFs (CAF19 cells); assay: 3D spheroid co-culture, CAF signal (green channel); details: read-out: LC50, 3D Cultures, CAFs
[7] = test system: Panc10.05; assay: 3D tumor spheroid culture growth (fluorescence intensity); details: read-out: LC50; 3D Cultures, Tumor Alone, Panc10.05, D12 curves
[8] = test system: Pa03C; assay: as above; details: read-out: LC50; 3D Cultures, Tumor Alone, Pa03C, D12 curves
[9] = test system: patient-derived Pa03C tumors with CAFs; assay: Flank co-culture model of PDAC, APX3330 and Ruxolitinib; type: in vivo, mice; details: treatment alone, 50 mg/kg, day 28
Experimental: Treatment of the implanted tumors started on day 11 post implant. Particularly, the co-cultures implanted included 2.5×10^6 tumor cells +/−5 ×10^6 CAFs, providing a 1:2 ratio of tumor cell to CAF. […] The mice were then administered either 50 mg/kg APX3330 BID in 4% Cr:EtOH, 50 mg/kg Rux SID pm in 4% Cr:EtOH, or combinations of the agents. Treatment schedule consisted of treating for 5 days and then giving 2 days off treatment until the tumors reached an average size of 2000 mm^3.

[10] = test system: CA9; assay: Hypoxia-induced CA9 mRNA and protein levels in 10.05 monolayer cells; type: cell-based, human; details: 10.05 cells, 0.2% O2 for 24 hours
Experimental: (§2) Western Blot Analysis: Immunoblotting was performed using antibodies for APE1/Ref-1 (Novus Biologicals; Littleton, CO), CA9 (Santa Cruz; Dallas, Texas), Actin (NeoMarkers; Fremont, CA), and Vinculin (Sigma; St. Louis, MO).
The comparative Ct method was used to quantitate mRNA levels using RPLP0 and B2M as reference genes. The primers for CA9, RPLP0, and B2M are commercially available (Applied Biosystems). Experiments were performed in triplicate for each sample.

[11] = test system: CA9; assay: CA9 protein expression in 10.05 3D tumor spheroids (Western blot); type: cell-based, human; details: 3D spheroid cultures, 12 days, treated on days 4 and 8
Experimental: as §2
The effect of APE1/Ref-1 redox inhibition on CA9 protein expression was also measured in 3D tumor spheroids.

[12] = test system: Pa03C and Panc10.05 tumor cells; assay: 3D spheroid / co-culture model of pancreatic cancer (both patient lines); details: for single agent efficacy on 3D spheroid growth: treated on days 4 and 8, FIG. 17
Experimental: Pa03C cells were plated into 3D cultures alone or with CAF19 cells.
Pa03C and Panc10.05 tumor cells were grown in 3D cultures in the presence of CAFs. Spheroids were treated with either single agents, vehicle (DMSO) or combination of targeted agents on days 4 and 8 (black arrows), and the intensity of tumor (red) and CAF (green) were quantified as described in Example 7 every 3-4 days in culture.

[13] = test system: mouse colon cell line MC-38; assay: Alamar blue cytotoxicity assay; type: cell-based; details: single agent, 72 hours
Experimental: MC-38 cells (Yunhua Liu) were seeded in a 96-well tissue culture plate at 2000 cells/well in DMEM+10% FBS and grown overnight at 37° C., 5% CO2. […] Cells were incubated for 72 hours at 37° C., 5% CO2. Media was exchanged with DMEM+5% FBS+10% Alamar blue fluorescent cell viability indicator (Invitrogen™) and incubated 4 hours at 37° C., 5% CO2 and then read on a fluorescent reader (Synergy™ H4 BioTek). […] Data shown is the average of 3 separate cytotoxicity assays; each assay normalized to media only control.

[14] = test system: human carcinoma colon cell line HCT-116; assay: Alamar blue cytotoxicity combination assay (CalcuSyn); type: cell-based; details: only one APX2014 dosage (12.5 uM), spiked with 75 uM CPI-613
Experimental: HTC-116 (Yunhua Liu) was seeded in a 96-well tissue culture plate at 2000 cells/well in DMEM+10% FBS and grown overnight at 37° C., 5% CO2. Drug Media DMEM+5% FBS was added at dosages of APX3330 (Apexian) in a 5-point spread from 75 uM to 6.3 uM and spiked with CPI-613 (Apexbio Technology) at 75 uM, or 50 uM, or alone for single agent. Cells were incubated for 72 hours at 37° C., 5% CO2. Media was exchanged with DMEM+5% FBS+10% Alamar blue fluorescent cell viability indicator (INVITROGEN™) and incubated 4 hours at 37° C., 5% CO2 and then read on a fluorescent reader (SYNERGY™ H4 BioTek). […] depicts Chou-Talalay Index (CI) of dose combinations (CalcuSyn). FIG. 32E depicts synergistic drug combinations (CalcuSyn) of APX3330 spiked with 50 uM CPI-613 or 75 uM CPI-613. […] Data shown is the average of 3 separate cytotoxicity assays; each assay normalized to media only control.
HTC-116 (Yunhua Liu) was seeded in a 96-well tissue culture plate at 2000 cells/well in DMEM+10% FBS and grown overnight at 37° C., 5% CO2. Drug Media DMEM+5% FBS was added at dosages of APX3330 (Apexian) from 100 uM to 0.4 uM in a 10-point spread and spiked with CPI-613 (Apexbio Technology) at 100 uM, or 75 uM, or alone for single agent. Cells were incubated for 72 hours at 37° C., 5% CO2. Media was exchanged with DMEM+5% FBS+10% Alamar blue fluorescent cell viability indicator (INVITROGEN™) and incubated 4 hours at 37° C., 5% CO2 and then read on a fluorescent reader (SYNERGY™ H4 BioTek). […] FIG. 33D depicts Chou-Talalay Index (CI) of dose combinations (CalcuSyn). FIG. 33E depicts synergistic drug combinations (CalcuSyn) of APX3330 spiked with 100 uM CPI-613 or 75 uM CPI-613. […] Data shown is the average of 3 separate cytotoxicity assays; each assay normalized to media only control.
HTC-116 (Yunhua Liu) was seeded in a 96-well tissue culture plate at 2000 cells/well in DMEM+10% FBS and grown overnight at 37° C., 5% CO2. Drug Media DMEM+5% FBS was added at dosages of APX2014 (Apexian) in a 5-point spread from 25 uM to 1.6 uM and spiked with CPI-613 (Apexbio Technology) at 75 uM, or 50 uM, or alone for single agent. Cells were incubated for 72 hours at 37° C., 5% CO2. Media was exchanged with DMEM+5% FBS+10% Alamar blue fluorescent cell viability indicator (INVITROGEN™) and incubated 4 hours at 37° C., 5% CO2 and then read on a fluorescent reader (SYNERGY™ H4 BioTek). […] FIG. 34D depicts Chou-Talalay Index (CI) of dose combinations (CalcuSyn). FIG. 34E depicts synergistic drug combinations (CalcuSyn) of APX2014 spiked with 50 uM CPI-613 or 75 uM CPI-613. Drug combination synergy could not be ascertained at APX2014 dosages when spiked with 50 uM CPI-613. […] Data shown is the average of 3 separate cytotoxicity assays; each assay normalized to media only control.
HTC-116 (Yunhua Liu) was seeded in a 96-well tissue culture plate at 2000 cells/well in DMEM+10% FBS and grown overnight at 37° C., 5% CO2. Drug Media DMEM+5% FBS was added at dosages of APX3330 (Apexian) from 100 uM to 0.4 uM in a 10-point spread and spiked with CB-839 (Sigma-Aldrich) at 1000 nM, or 500 nM, or alone for single agent. Cells were incubated for 72 hours at 37° C., 5% CO2. Media was exchanged with DMEM+5% FBS+10% Alamar blue fluorescent cell viability indicator (INVITROGEN™) and incubated 4 hours at 37° C., 5% CO2 and then read on a fluorescent reader (SYNERGY™ H4 BioTek). FIG. 35A depicts APX3330 and CB-839 single agent effects. FIG. 35B depicts APX3330 and CB-839 synergistic combo effects. […] FIG. 35E depicts synergistic drug combinations (CalcuSyn) of APX3330 spiked with 1000 nM CB-839 or 500 nM CB-839 (5-pt only). […] Data shown is the average of 3 separate cytotoxicity assays; each assay normalized to media only control.

[15] = test system: bladder cell line BLCAb001; assay: 96-hour viability assay, APX2014 with cisplatin; type: cell-based; details: APX2014 doses of 6 mM-3 mM in combination with cisplatin
Experimental: The BLCAb001 (cisplatin resistant) cell line was treated with increasing concentrations of APX2014 and cisplatin as single agents and in combination and assayed in a 96-hour viability assay. The concentrations of APX2014 range from 6 mM-0.38 mM in combination with the indicated cisplatin doses (FIG. 36A). […] The concentrations of Cisplatin as a single agent range from 2.5 mM-0.04 mM (FIG. 36B).

[16] = test system: Panc10.05
[17] = test system: Pa03C
[18] = Homo sapiens, Panc1005, Panc10.05, N = 3, read-out: LC50 (the source's name)
[19] = co-culture with Pa03C, D12 curves
[20] = co-culture with Panc10.05, D12 curves

| Compound | cytotoxicity in combination with Ref-1 inhibition [1] | CC50 ([2]; Homo sapiens) [µM] | CC50 [3, 18] [µM] | effect on intracellular pH as single agent [5] | CC50 [6, 19] [µM] | CC50 [6, 20] [µM] | CC50 [7] [µM] | CC50 [8] [µM] | fold less required vs. APX3330 to decrease hypoxia-induced CA9 mRNA and protein levels [10] [fold] | fold less of the concentration compared to APX3330 to attenuate CA9 expression [11] [fold] | single agent efficacy on 3D spheroid growth [12] | other results |
| --- | --- | --- | --- | --- | --- | --- | --- | --- | --- | --- | --- | --- |
| CC(=O)O[C@@]12CO[C@@H]1C[C@H](O)[C@@]1(C)C(=O)[C@H](O)C3=C(C)[C@@H](OC(=O)[C@H](O)[C@@H](NC(=O)OC(C)(C)C)c4ccccc4)C[C@@](O)([C@@H](OC(=O)c4ccccc4)[C@H]21)C3(C)C [Docetaxel] | more effective than either agent alone |  |  |  |  |  |  |  |  |  |  |  |
| NS(=O)(=O)c1ccc(NC(=O)Nc2ccc(F)cc2)cc1 [SLC-0111, reference compound] |  | 90.8 | 63.9 | did not affect | 97 | 98.2 | 64 | 51.9 |  |  |  | CC50 [4]: < 100 µM |
| N#CC[C@H](C1CCCC1)n1cc(-c2ncnc3[nH]ccc23)cn1 [Rux, Ruxolitinib, reference compound] |  |  |  |  |  |  |  |  |  |  |  | average tumor size [9]: 1750 mm³ |
| CCC/C(=C\C1=C(OC)C(=O)c2ccccc2C1=O)C(=O)N(CC)CC [APX2009, (2E)-2-[(3-methoxy-1,4-dioxo-1,4-dihydronaphthalen-2-yl)methylidene]-N,N-diethylpentanamide] |  | 6.7 | 4.9 | decreased intracellular pH | 13.1 | 14.1 | 9.4 | 6.9 | 10 | 10 | as effective as APX3330 | tumor killing in combination with napabucasin ([12]; 3D spheroid model (tumor and CAF)): synergistic tumor killing effect |
| CCC/C(=C\C1=C(OC)C(=O)c2ccccc2C1=O)C(=O)NOC [APX2014, (2E)-2-[(3-methoxy-1,4-dioxo-1,4-dihydronapthalen-2-yl)methylidene]-N-methoxypentanamide] |  |  |  | decreased intracellular pH |  |  |  |  | 10 | 10 | as effective as APX3330 | CC50 [2]: 3.5 µM; CC50 ([3]; Panc10.05, N = 3, read-out: LC50 (the source's name)): 1.3 µM; EC10 [13]: 2.0 µM; EC30 [13]: 3.0 µM; drug combination synergy (Chou-Talalay, CalcuSyn) [14]: Synergy was observed; combination index [15]: > 1.0; CC50 [16]: 0.3 µM; CC50 [17]: 1.1 µM |
| CC(=O)Nc1cccc(-n2c(=O)n(C3CC3)c(=O)c3c(Nc4ccc(I)cc4F)n(C)c(=O)c(C)c32)c1 [Trametinib] | more effective than either agent alone |  |  |  |  |  |  |  |  |  |  |  |
